Experimental data as given in ChEMBL document CHEMBL5331134, “Identification of Brain-Penetrant ATP-Competitive mTOR Inhibitors for CNS Syndromes” (J Med Chem, 2023).

What was measured:
[1] = Drug concentration in C57BL/6 mouse plasma at 30 mg/kg, po measured after 3 hrs; assay type: ADME, organism-based
[2] = biological target: Serine/threonine-protein kinase ATR (Homo sapiens, UniProt Q13535); experiment: Inhibition of ATR (unknown origin)-driven CHK1 phosphorylation
[3] = AUC(0 to t) in C57BL/6 mouse at 3 mg/kg, ip measured upto 24 hrs by HPLC-MS analysis; assay type: ADME, organism-based; set-up: time < 24 hrs, dose 3 mg/kg, route ip; settings: in vivo
[4] = Drug concentration in C57BL/6 mouse plasma at 10 mg/kg, po measured after 24 hrs; assay type: ADME, organism-based
[5] = Cmax in po dosed C57BL/6 mouse measured upto 24 hrs by HPLC-MS analysis; assay type: ADME, organism-based; set-up: time < 24 hrs, route po; settings: in vivo
[6] = Clearance in C57BL/6 mouse at 1 mg/kg, iv and 3 mg/kg, ip measured upto 24 hrs by HPLC-MS analysis; assay type: ADME, organism-based; settings: in vivo
[7] = biological target: Phosphatidylinositol 4,5-bisphosphate 3-kinase catalytic subunit gamma isoform (Homo sapiens, UniProt P48736); experiment: Inhibition of PI3Kgamma (unknown origin)
[8] = Drug concentration in C57BL/6 mouse plasma at 30 mg/kg, po measured after 1 hr; assay type: ADME, organism-based
[9] = biological target: T1, Phosphatidylinositol 4,5-bisphosphate 3-kinase catalytic subunit delta isoform (Homo sapiens, UniProt O00329); experiment: Inhibition of PI3Kdelta (unknown origin)
T1 sequence (O00329 whole entry): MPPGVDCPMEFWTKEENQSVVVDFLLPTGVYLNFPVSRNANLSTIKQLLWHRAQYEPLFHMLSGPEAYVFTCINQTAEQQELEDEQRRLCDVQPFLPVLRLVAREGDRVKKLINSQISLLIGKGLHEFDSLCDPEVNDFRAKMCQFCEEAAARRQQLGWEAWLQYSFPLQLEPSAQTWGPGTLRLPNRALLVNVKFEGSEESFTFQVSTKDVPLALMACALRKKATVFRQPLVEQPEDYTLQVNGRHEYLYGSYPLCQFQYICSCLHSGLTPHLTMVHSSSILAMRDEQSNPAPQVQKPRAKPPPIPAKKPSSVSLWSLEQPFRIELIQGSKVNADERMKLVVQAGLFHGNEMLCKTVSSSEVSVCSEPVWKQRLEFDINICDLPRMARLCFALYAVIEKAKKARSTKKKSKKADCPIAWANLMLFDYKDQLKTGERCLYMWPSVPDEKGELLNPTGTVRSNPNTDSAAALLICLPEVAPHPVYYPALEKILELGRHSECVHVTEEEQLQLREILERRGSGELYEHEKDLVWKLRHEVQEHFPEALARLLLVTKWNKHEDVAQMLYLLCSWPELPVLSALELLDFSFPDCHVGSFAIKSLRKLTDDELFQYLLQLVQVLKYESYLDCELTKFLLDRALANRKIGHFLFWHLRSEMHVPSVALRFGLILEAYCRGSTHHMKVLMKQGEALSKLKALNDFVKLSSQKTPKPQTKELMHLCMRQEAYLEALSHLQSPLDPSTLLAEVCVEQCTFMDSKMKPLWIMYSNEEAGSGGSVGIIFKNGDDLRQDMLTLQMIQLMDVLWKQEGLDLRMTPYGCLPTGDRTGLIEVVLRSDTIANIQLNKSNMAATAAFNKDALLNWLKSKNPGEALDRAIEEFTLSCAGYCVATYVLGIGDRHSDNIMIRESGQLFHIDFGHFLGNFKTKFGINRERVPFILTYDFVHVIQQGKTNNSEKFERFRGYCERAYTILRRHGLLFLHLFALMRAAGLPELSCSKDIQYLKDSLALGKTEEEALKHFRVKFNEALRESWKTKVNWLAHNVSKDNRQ

[10] = Efflux ratio of apparent permeability across basolateral to apical side over apical to basolateral side in MDCK-MDR1 cells; assay type: ADME, cell-based, Canis lupus familiaris; settings: dog
[11] = Metabolic stability in dog liver microsomes assessed as intrinsic clearance at 1 uM incubated for 30 mins in presence of NADPH by LC-MS/MS analysis; assay type: ADME, Canis lupus familiaris, Microsome; settings: read-out: CLH
[12] = Bioavailability in Sprague-Dawley rat at 3 mg/kg, po and 1 mg/kg, iv measured upto 24 hrs by HPLC-MS analysis; assay type: ADME, organism-based; settings: in vivo
[13] = In vivo inhibition of phosphorylation of AKT at serine 473 residues in C57BL/6 mouse brain at 10 to 30 mg/kg, po measured after 3 hrs by Western blotting analysis; assay type: organism-based; settings: dose 10-30 mg/kg
[14] = In vivo inhibition of phosphorylation of AKT at serine 473 residues in C57BL/6 mouse brain at 10 to 30 mg/kg, po measured after 24 hrs by Western blotting analysis; assay type: organism-based; settings: dose 10-30 mg/kg
[15] = Volume of distribution at steady state in C57BL/6 mouse at 1 mg/kg, iv and 3 mg/kg, ip measured upto 24 hrs by HPLC-MS analysis; assay type: ADME, organism-based; settings: in vivo, read-out: Vdss
[16] = Volume of distribution at steady state in Beagle dog at 1 mg/kg, po and 0.3 mg/kg, iv measured upto 24 hrs by LC/MS/MS analysis; assay type: ADME, organism-based, Canis lupus familiaris; settings: in vivo
[17] = Drug concentration in C57BL/6 mouse brain at 30 mg/kg, po measured after 3 hrs; assay type: ADME, organism-based; settings: read-out: Ct
[18] = Metabolic stability in cynomolgus monkey liver microsomes assessed as intrinsic clearance at 1 uM incubated for 30 mins in presence of NADPH by LC-MS/MS analysis; assay type: ADME, Macaca fascicularis, Microsome; settings: read-out: CLH
[19] = Ratio of drug concentration in brain to plasma in C57BL/6 mouse at 10 mg/kg, po measured at 3 hrs; assay type: ADME, organism-based; settings: read-out: BPR
[20] = Metabolic stability in human liver microsomes assessed as intrinsic clearance at 1 uM incubated for 30 mins in presence of NADPH by LC-MS/MS analysis; assay type: ADME, Microsome; settings: read-out: CLH
[21] = Drug concentration in C57BL/6 mouse brain at 1 mg/kg, po measured after 1 hr; assay type: ADME, organism-based; settings: read-out: Ct
[22] = Cmax in cynomolgus monkey at 1 mg/kg, po measured upto 24 hrs by LC/MS/MS analysis; assay type: ADME, organism-based, Macaca fascicularis; set-up: time < 24 hrs, dose 1 mg/kg, route po; settings: in vivo
[23] = Drug concentration in C57BL/6 mouse brain at 1 mg/kg, po measured after 8 hrs; assay type: ADME, organism-based; settings: read-out: Ct
[24] = Drug concentration in C57BL/6 mouse plasma at 1 mg/kg, po measured after 3 hrs; assay type: ADME, organism-based
[25] = Drug concentration in C57BL/6 mouse plasma at 10 mg/kg, po measured after 8 hrs; assay type: ADME, organism-based
[26] = Drug concentration in C57BL/6 mouse plasma at 1 mg/kg, po measured after 8 hrs; assay type: ADME, organism-based
[27] = Bioavailability in cynomolgus monkey at 1 mg/kg, po and 0.1 mg/kg, iv measured upto 24 hrs by LC/MS/MS analysis; assay type: ADME, organism-based, Macaca fascicularis; settings: in vivo
[28] = Ratio of drug concentration in brain to plasma in C57BL/6 mouse at 1 mg/kg, po measured at 1 hr; assay type: ADME, organism-based; settings: read-out: BPR
[29] = Drug concentration in C57BL/6 mouse brain at 3 mg/kg, po measured after 3 hrs; assay type: ADME, organism-based; settings: read-out: Ct
[30] = Ratio of drug concentration in brain to plasma in C57BL/6 mouse at 3 mg/kg, po measured at 8 hrs; assay type: ADME, organism-based; settings: read-out: BPR
[31] = Drug concentration in C57BL/6 mouse brain at 1 mg/kg, po measured after 3 hrs; assay type: ADME, organism-based; settings: read-out: Ct

Phosphatidylinositol 4,5-bisphosphate 3-kinase catalytic subunit gamma isoform, sequence (P48736 whole entry, canonical isoform): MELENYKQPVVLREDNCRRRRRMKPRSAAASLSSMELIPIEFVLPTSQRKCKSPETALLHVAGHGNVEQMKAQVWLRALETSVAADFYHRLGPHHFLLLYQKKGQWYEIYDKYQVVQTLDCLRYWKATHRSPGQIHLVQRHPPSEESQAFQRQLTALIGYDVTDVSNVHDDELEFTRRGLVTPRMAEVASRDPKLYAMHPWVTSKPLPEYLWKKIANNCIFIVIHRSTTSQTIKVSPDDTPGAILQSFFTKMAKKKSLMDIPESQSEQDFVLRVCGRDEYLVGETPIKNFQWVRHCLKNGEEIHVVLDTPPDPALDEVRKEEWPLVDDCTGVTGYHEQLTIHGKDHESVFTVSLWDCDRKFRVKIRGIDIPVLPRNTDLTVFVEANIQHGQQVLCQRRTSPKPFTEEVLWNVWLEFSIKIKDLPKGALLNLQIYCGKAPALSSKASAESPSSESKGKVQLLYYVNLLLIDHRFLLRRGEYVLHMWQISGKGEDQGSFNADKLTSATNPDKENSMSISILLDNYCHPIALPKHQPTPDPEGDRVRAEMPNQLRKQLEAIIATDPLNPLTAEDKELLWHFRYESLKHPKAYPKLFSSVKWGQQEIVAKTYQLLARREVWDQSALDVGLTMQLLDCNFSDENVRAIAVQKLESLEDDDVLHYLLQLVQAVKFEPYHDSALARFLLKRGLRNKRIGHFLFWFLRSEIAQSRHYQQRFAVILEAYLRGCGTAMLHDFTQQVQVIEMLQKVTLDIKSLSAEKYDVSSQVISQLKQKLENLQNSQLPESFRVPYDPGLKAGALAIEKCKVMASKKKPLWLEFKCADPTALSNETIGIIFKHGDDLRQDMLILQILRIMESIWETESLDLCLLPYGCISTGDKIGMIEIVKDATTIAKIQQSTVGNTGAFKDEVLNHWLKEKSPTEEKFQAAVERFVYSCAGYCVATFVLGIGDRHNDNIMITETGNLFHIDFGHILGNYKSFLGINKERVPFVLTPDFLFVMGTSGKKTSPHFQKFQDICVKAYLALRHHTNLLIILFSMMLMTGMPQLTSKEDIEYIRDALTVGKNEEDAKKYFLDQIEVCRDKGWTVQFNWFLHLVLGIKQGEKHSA
Serine/threonine-protein kinase ATR, sequence (Q13535 whole entry): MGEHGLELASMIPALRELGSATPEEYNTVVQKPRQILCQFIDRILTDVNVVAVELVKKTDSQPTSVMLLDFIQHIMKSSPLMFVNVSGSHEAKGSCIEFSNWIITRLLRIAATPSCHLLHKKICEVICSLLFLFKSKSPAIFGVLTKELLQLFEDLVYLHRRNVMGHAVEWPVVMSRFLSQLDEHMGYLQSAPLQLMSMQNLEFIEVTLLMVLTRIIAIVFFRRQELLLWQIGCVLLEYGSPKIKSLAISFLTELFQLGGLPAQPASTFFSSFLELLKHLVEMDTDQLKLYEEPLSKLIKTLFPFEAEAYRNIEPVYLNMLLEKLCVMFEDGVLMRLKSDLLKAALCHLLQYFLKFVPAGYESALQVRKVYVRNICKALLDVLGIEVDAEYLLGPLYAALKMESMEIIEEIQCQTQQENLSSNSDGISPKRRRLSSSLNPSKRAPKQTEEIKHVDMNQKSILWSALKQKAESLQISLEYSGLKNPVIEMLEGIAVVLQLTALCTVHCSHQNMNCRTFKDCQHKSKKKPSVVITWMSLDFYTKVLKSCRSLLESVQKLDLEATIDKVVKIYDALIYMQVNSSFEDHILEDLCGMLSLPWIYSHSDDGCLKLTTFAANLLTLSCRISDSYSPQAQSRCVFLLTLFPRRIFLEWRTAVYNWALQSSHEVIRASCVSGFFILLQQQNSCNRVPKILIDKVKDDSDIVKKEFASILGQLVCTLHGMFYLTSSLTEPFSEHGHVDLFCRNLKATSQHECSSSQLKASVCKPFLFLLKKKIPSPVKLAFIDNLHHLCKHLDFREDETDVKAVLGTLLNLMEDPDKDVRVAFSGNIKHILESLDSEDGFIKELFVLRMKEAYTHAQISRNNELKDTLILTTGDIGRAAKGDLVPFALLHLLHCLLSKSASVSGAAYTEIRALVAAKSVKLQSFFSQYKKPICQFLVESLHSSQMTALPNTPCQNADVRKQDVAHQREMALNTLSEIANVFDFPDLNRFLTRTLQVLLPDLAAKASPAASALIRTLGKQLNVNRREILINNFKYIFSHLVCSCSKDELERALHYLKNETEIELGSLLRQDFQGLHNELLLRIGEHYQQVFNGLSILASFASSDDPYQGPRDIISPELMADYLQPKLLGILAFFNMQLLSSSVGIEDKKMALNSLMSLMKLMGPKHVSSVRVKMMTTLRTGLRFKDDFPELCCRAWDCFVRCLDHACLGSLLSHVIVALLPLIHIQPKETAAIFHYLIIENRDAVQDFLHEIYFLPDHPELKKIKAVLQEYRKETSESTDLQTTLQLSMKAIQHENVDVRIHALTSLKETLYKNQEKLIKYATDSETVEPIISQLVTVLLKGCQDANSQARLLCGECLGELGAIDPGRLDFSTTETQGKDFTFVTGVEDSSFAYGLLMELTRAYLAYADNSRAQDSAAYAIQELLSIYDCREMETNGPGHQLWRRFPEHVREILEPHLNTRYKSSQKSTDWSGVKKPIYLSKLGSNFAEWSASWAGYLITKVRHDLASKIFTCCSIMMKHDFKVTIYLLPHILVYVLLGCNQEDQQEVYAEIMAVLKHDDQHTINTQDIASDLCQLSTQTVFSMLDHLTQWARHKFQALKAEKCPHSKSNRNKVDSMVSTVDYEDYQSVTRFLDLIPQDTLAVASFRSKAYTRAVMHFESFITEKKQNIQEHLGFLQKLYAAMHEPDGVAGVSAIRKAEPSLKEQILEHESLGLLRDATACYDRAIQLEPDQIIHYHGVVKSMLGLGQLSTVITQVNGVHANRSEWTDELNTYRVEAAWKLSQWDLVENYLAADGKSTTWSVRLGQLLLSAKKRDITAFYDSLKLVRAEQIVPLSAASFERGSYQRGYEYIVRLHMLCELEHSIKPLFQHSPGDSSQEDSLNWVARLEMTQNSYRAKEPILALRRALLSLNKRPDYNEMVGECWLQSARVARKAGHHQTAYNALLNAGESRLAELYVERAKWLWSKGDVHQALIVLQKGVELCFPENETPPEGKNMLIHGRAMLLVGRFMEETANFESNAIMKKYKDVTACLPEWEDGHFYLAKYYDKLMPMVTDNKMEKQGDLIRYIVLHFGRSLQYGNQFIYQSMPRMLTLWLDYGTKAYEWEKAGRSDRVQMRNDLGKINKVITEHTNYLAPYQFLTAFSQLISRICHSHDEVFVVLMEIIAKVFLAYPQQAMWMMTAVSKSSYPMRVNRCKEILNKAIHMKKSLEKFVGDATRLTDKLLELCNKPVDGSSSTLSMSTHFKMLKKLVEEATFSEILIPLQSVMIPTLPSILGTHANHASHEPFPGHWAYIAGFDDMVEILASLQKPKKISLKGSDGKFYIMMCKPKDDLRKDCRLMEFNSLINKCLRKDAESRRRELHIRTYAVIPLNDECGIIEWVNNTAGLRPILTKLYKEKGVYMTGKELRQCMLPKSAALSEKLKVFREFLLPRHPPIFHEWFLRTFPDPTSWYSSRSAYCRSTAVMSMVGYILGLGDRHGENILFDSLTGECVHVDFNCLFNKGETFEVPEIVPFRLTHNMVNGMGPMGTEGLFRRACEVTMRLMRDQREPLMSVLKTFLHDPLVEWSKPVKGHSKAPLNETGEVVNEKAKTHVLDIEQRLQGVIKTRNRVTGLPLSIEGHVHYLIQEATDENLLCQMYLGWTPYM

concentration at 3 h [1] [nM]	IC50 [2] [µM]	AUC(0-t) at 24 h [3] [µM·h]	concentration at 24 h [4] [nM]	Cmax [5] [nM]	IC50 [7] [µM]	concentration at 1 h [8] [nM]	IC50 [9] [µM]	efflux ratio [10]	microsomal CLint at 1 µM [11] [µL/min/mg]	bioavailability [12] [%]	Vd [15] [L/kg]	concentration at 3 h [17] [nM]	microsomal CLint at 1 µM [18] [µL/min/mg]	Kp at 3 h [19]	microsomal CLint at 1 µM [20] [µL/min/mg]	Structure (SMILES)	also measured
4160	17.2	6.66	4	1260	> 10	3930	> 10	0.48	19	122	2.6	2720	115	0.51	22	C[C@@H]1COCCN1c1cc(N2CCOC[C@@H]2C)nc2[nH]c(-c3ccccn3)nc12	clearance [6]: 19 mL/min/kg; inhibition (INH) [13]: Active; inhibition (INH) [14]: Not Active; Vdss [16]: 4.3 L/kg
8420	14.4	11.7	211	1920	> 10	10200	> 10	0.87	10	107	2.8	6320	31	0.59	3.4	C[C@@H]1COCCN1c1cc(N2CCOC[C@@H]2C)nc2[nH]c(-c3cscn3)nc12	concentration at 1 h [21]: 388 nM; Cmax [22]: 468 nM; concentration at 8 h [23]: 90 nM; concentration at 3 h [24]: 674 nM; concentration at 8 h [25]: 406 nM; concentration at 8 h [26]: 246 nM; bioavailability [27]: 110%; Kp at 1 h [28]: 0.51; concentration at 3 h [29]: 930 nM; Kp at 8 h [30]: 0.29; concentration at 3 h [31]: 240 nM
